{"source": "patent US20230165811A1", "about": "“METHOD FOR TREATING SYMPTOMS OF VIRAL INFECTIONS” (priority 2020, published 2023)", "tested_on": "Murine RAW 264.7 macrophages", "assay": "LPS-induced TNF-α production in RAW 264.7 macrophages (ELISA)", "format": "cell-based", "conditions": "1 μM compound for 1 h, then 1 μg/mL LPS, vs vehicle (DMSO), FIG. 1", "protocol": "Murine RAW 264.7 macrophages (ATCC TIB-71) were cultured in Dulbecco's Modified Eagle's Medium supplemented with fetal bovine serum (FBS) at a final concentration of 10%. The cells were maintained in T75 flasks in humidified atmosphere with 5% CO2 at 37° C. Subculturing was performed every 2-3 days with a cellscraper.\nRAW 264.7 macrophages were seeded onto 24-well plate in 1 mL of complete growth medium and left overnight to enable cell attachment. Next day the cells were washed with phosphate buffered saline and the medium was replaced with 0.5 mL of low serum medium containing 1% FBS. After 3 h of incubation, the medium was replaced with serum-free medium (0.5 mL) and incubated for 1.5 h. Then, the cells were exposed to 1 μM (R,R′)-4′-methoxy-1-naphthylfenoterol (MNF) or vehicle (DMSO) for 1 h followed by stimulation with 1 μg/mL lipopolysaccharide (LPS, E. coli 055: B5). Media were collected at the following timepoints after LPS administration: 0 h, 2 h, 4 h, 6 h, 8 h, and 10 h.\nTNF-α was measured in all collected media samples using Quantikine ELISA kit (MTA00B) from R&D Systems according to manufacturer's protocol.\nStatistical analysis Obtained data were assessed and plotted using GraphPad Prism 8.4.2. Two-way analysis of variance (ANOVA) followed by Sidak post-hoc test was used to compare mean TNF-α concentration across treatments and exposure times.", "data": [{"smiles": "COc1ccc(C[C@@H](C)NC[C@H](O)c2cc(O)cc(O)c2)c2ccccc12", "note": "[(R,R′) MNF, (R,R′)-4′-methoxy-1-naphthylfenoterol]", "values": [{"measurement": "inhibition of LPS-induced production of TNF-α", "setting": "8 h timepoint after LPS", "value": "significant inhibition"}, {"measurement": "inhibition of LPS-induced production of TNF-α", "setting": "10 h timepoint after LPS", "value": "significant inhibition"}]}]}
